# From PubChem BioAssay AID1963852 (Molecular Pharmacology Branch, DTP, NCI, 2024)
# pIC50: −log10 of the molar value.
# Tested on: 282377-053-R-J1-PDC complex spheroid viability
# Experiment: Anticancer human tumor 282377-053-R-J1-PDC patient-derived colon adenocarcinoma cell line growth inhibition [POLQ]
# Details: for pIC50: curve of first compound; for viability, T/C: stronger effect = lower value
# Procedure, shortened: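 Patient-derived tumour cells were co-cultured with HUVEC and mesenchymal stem cells as multicellular spheroids at 37 °C. They were treated with POLQ inhibitors (novobiocin, ART-558, RP6685) alone or combined with other agents. Top concentrations were at or near clinical Cmax (otherwise 10 microM; SN-38 at 1 microM), decreasing in half-log steps.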
# [1] = second compound 0.0316 µM, first compound 0.0316 µM
# [2] = second compound 0.0316 µM, first compound 0.1 µM
# [3] = second compound 0.1 µM, first compound 0.0316 µM
# [4] = second compound 0.1 µM, first compound 0.1 µM
# [5] = second compound 0.316 µM, first compound 0.0316 µM
# [6] = second compound 0.316 µM, first compound 0.1 µM
# [7] = second compound 1 µM, first compound 0.0316 µM
# [8] = second compound 1 µM, first compound 0.1 µM
# [9] = second compound 3.16 µM, first compound 0.0316 µM
# [10] = second compound 3.16 µM, first compound 0.1 µM
# [11] = second compound 10 µM, first compound 0.0316 µM
# [12] = second compound 10 µM, first compound 0.1 µM
# 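Further: spheroids exposed to compounds for seven days.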
# 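Wherever viability, T/C is given: 100% = DMSO vehicle control viability.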
smiles,measurement,setting,value
CC(=O)O[C@H]1C(=O)[C@@]2(C)[C@H]([C@H](OC(=O)c3ccccc3)[C@]3(O)C[C@H](OC(=O)[C@H](O)[C@@H](NC(=O)c4ccccc4)c4ccccc4)C(C)=C1C3(C)C)[C@]1(OC(C)=O)CO[C@@H]1C[C@@H]2O + Nc1ccc(C#CCN(C(=O)Cc2ncc(C(F)(F)F)cc2C(F)(F)F)c2ccc(F)cc2)nn1,pIC50,second compound 0.0316 µM,< 5.52
same,pIC50,second compound 0.1 µM,< 5.52
same,pIC50,second compound 0.316 µM,5.52
same,pIC50,second compound 1 µM,< 5.52
same,pIC50,second compound 3.16 µM,7.04
same,pIC50,second compound 10 µM,< 5.52
same,"viability, T/C","second compound 0.0316 µM, first compound 0.00949 µM",102%
same,"viability, T/C","second compound 0.0316 µM, first compound 0.03 µM",50.7%
same,"viability, T/C","second compound 0.0316 µM, first compound 0.0949 µM",47.4%
same,"viability, T/C","second compound 0.0316 µM, first compound 0.3 µM",46.9%
same,"viability, T/C","second compound 0.0316 µM, first compound 0.949 µM",51.2%
same,"viability, T/C","second compound 0.0316 µM, first compound 3 µM",65.8%
same,"viability, T/C","second compound 0.1 µM, first compound 0.00949 µM",102%
same,"viability, T/C","second compound 0.1 µM, first compound 0.03 µM",65.9%
same,"viability, T/C","second compound 0.1 µM, first compound 0.0949 µM",50.4%
same,"viability, T/C","second compound 0.1 µM, first compound 0.3 µM",46.5%
same,"viability, T/C","second compound 0.1 µM, first compound 0.949 µM",53.8%
same,"viability, T/C","second compound 0.1 µM, first compound 3 µM",64.9%
same,"viability, T/C","second compound 0.316 µM, first compound 0.00949 µM",100%
same,"viability, T/C","second compound 0.316 µM, first compound 0.03 µM",47.7%
same,"viability, T/C","second compound 0.316 µM, first compound 0.0949 µM",49.7%
same,"viability, T/C","second compound 0.316 µM, first compound 0.3 µM",50.1%
same,"viability, T/C","second compound 0.316 µM, first compound 0.949 µM",47.2%
same,"viability, T/C","second compound 0.316 µM, first compound 3 µM",65.2%
same,"viability, T/C","second compound 1 µM, first compound 0.00949 µM",99.1%
same,"viability, T/C","second compound 1 µM, first compound 0.03 µM",57.4%
same,"viability, T/C","second compound 1 µM, first compound 0.0949 µM",44.2%
same,"viability, T/C","second compound 1 µM, first compound 0.3 µM",53.3%
same,"viability, T/C","second compound 1 µM, first compound 0.949 µM",57.3%
same,"viability, T/C","second compound 1 µM, first compound 3 µM",57.7%
same,"viability, T/C","second compound 3.16 µM, first compound 0.00949 µM",87.8%
same,"viability, T/C","second compound 3.16 µM, first compound 0.03 µM",52.8%
same,"viability, T/C","second compound 3.16 µM, first compound 0.0949 µM",42.3%
same,"viability, T/C","second compound 3.16 µM, first compound 0.3 µM",49.7%
same,"viability, T/C","second compound 3.16 µM, first compound 0.949 µM",45.8%
same,"viability, T/C","second compound 3.16 µM, first compound 3 µM",60.8%
same,"viability, T/C","second compound 10 µM, first compound 0.00949 µM",106%
same,"viability, T/C","second compound 10 µM, first compound 0.03 µM",58.8%
same,"viability, T/C","second compound 10 µM, first compound 0.0949 µM",49.7%
same,"viability, T/C","second compound 10 µM, first compound 0.3 µM",50.9%
same,"viability, T/C","second compound 10 µM, first compound 0.949 µM",60.9%
same,"viability, T/C","second compound 10 µM, first compound 3 µM",77.6%
CC[C@@]1(O)C(=O)OCc2c1cc1n(c2=O)Cc2cc3c(CN(C)C)c(O)ccc3nc2-1 + Nc1ccc(C#CCN(C(=O)Cc2ncc(C(F)(F)F)cc2C(F)(F)F)c2ccc(F)cc2)nn1,pIC50,second compound 0.0316 µM,< 7.00
same,pIC50,second compound 0.1 µM,< 7.00
same,pIC50,second compound 0.316 µM,< 7.00
same,pIC50,second compound 1 µM,< 7.00
same,pIC50,second compound 3.16 µM,< 7.00
same,pIC50,second compound 10 µM,< 7.00
same,"viability, T/C","second compound 0.0316 µM, first compound 0.000316 µM",117%
same,"viability, T/C","second compound 0.0316 µM, first compound 0.001 µM",90.7%
same,"viability, T/C","second compound 0.0316 µM, first compound 0.00316 µM",124%
same,"viability, T/C","second compound 0.0316 µM, first compound 0.01 µM",103%
same,"viability, T/C",[1],96.5%
same,"viability, T/C",[2],99.8%
same,"viability, T/C","second compound 0.1 µM, first compound 0.000316 µM",91.1%
same,"viability, T/C","second compound 0.1 µM, first compound 0.001 µM",99.2%
same,"viability, T/C","second compound 0.1 µM, first compound 0.00316 µM",91%
same,"viability, T/C","second compound 0.1 µM, first compound 0.01 µM",94.7%
same,"viability, T/C",[3],103%
same,"viability, T/C",[4],102%
same,"viability, T/C","second compound 0.316 µM, first compound 0.000316 µM",97.1%
same,"viability, T/C","second compound 0.316 µM, first compound 0.001 µM",94.8%
same,"viability, T/C","second compound 0.316 µM, first compound 0.00316 µM",91.7%
same,"viability, T/C","second compound 0.316 µM, first compound 0.01 µM",79.3%
same,"viability, T/C",[5],101%
same,"viability, T/C",[6],101%
same,"viability, T/C","second compound 1 µM, first compound 0.000316 µM",95.2%
same,"viability, T/C","second compound 1 µM, first compound 0.001 µM",88.9%
same,"viability, T/C","second compound 1 µM, first compound 0.00316 µM",83%
same,"viability, T/C","second compound 1 µM, first compound 0.01 µM",85%
same,"viability, T/C",[7],102%
same,"viability, T/C",[8],91.1%
same,"viability, T/C","second compound 3.16 µM, first compound 0.000316 µM",95.8%
same,"viability, T/C","second compound 3.16 µM, first compound 0.001 µM",95.7%
same,"viability, T/C","second compound 3.16 µM, first compound 0.00316 µM",94.2%
same,"viability, T/C","second compound 3.16 µM, first compound 0.01 µM",95.4%
same,"viability, T/C",[9],103%
same,"viability, T/C",[10],91.8%
same,"viability, T/C","second compound 10 µM, first compound 0.000316 µM",111%
same,"viability, T/C","second compound 10 µM, first compound 0.001 µM",93.7%
same,"viability, T/C","second compound 10 µM, first compound 0.00316 µM",124%
same,"viability, T/C","second compound 10 µM, first compound 0.01 µM",112%
same,"viability, T/C",[11],112%
same,"viability, T/C",[12],127%
O=c1[nH]cc(F)c(=O)[nH]1 + Nc1ccc(C#CCN(C(=O)Cc2ncc(C(F)(F)F)cc2C(F)(F)F)c2ccc(F)cc2)nn1,pIC50,second compound 0.0316 µM,< 5.00
same,pIC50,second compound 0.1 µM,< 5.00
same,pIC50,second compound 0.316 µM,< 5.00
same,pIC50,second compound 1 µM,< 5.00
same,pIC50,second compound 3.16 µM,< 5.00
same,pIC50,second compound 10 µM,< 5.00
same,"viability, T/C",[1],115%
same,"viability, T/C",[2],107%
same,"viability, T/C","second compound 0.0316 µM, first compound 0.316 µM",142%
same,"viability, T/C","second compound 0.0316 µM, first compound 1 µM",117%
same,"viability, T/C","second compound 0.0316 µM, first compound 3.16 µM",89.9%
same,"viability, T/C","second compound 0.0316 µM, first compound 10 µM",95.1%
same,"viability, T/C",[3],107%
same,"viability, T/C",[4],126%
same,"viability, T/C","second compound 0.1 µM, first compound 0.316 µM",109%
same,"viability, T/C","second compound 0.1 µM, first compound 1 µM",91.6%
same,"viability, T/C","second compound 0.1 µM, first compound 3.16 µM",95.1%
same,"viability, T/C","second compound 0.1 µM, first compound 10 µM",94.5%
same,"viability, T/C",[5],118%
same,"viability, T/C",[6],98%
same,"viability, T/C","second compound 0.316 µM, first compound 0.316 µM",111%
same,"viability, T/C","second compound 0.316 µM, first compound 1 µM",99.1%
same,"viability, T/C","second compound 0.316 µM, first compound 3.16 µM",87.5%
same,"viability, T/C","second compound 0.316 µM, first compound 10 µM",90.7%
same,"viability, T/C",[7],106%
same,"viability, T/C",[8],103%
same,"viability, T/C","second compound 1 µM, first compound 0.316 µM",116%
same,"viability, T/C","second compound 1 µM, first compound 1 µM",108%
same,"viability, T/C","second compound 1 µM, first compound 3.16 µM",112%
same,"viability, T/C","second compound 1 µM, first compound 10 µM",95.1%
same,"viability, T/C",[9],119%
same,"viability, T/C",[10],122%
same,"viability, T/C","second compound 3.16 µM, first compound 0.316 µM",121%
same,"viability, T/C","second compound 3.16 µM, first compound 1 µM",118%
same,"viability, T/C","second compound 3.16 µM, first compound 3.16 µM",98.8%
same,"viability, T/C","second compound 3.16 µM, first compound 10 µM",85.9%
same,"viability, T/C",[11],123%
same,"viability, T/C",[12],128%
same,"viability, T/C","second compound 10 µM, first compound 0.316 µM",124%
same,"viability, T/C","second compound 10 µM, first compound 1 µM",134%
same,"viability, T/C","second compound 10 µM, first compound 3.16 µM",90%
same,"viability, T/C","second compound 10 µM, first compound 10 µM",111%
